We go through 22 compounds from patent US5543415A, “Antidepressants” (Kyowa Hakko Kogyo Co., Ltd., priority 1992, dated 1996).

For series [1], the system named is clonidine-induced aggressive behavior. In words: Effect on Clonidine-Induced Aggressive Behavior (number of biting attacks during 30 minutes). In kind it is in vivo, male ddY mice. Particulars: po; for Number of the Biting Attacks (mean ± S.E.M.), Test Compound-Treated Group: 60 min before clonidine 20 mg/kg ip, 30 min count. The protocol: The effect of a test compound on the aggressive behavior induced by intraperitoneal administration of clonidine was investigated. […] The experiment was performed by using several groups of male ddY mice (weighing 20 to 25 g, Japan SLC), each group consisting of two mice. The test compound was suspended in injectable distilled water (Otsuka Pharmaceutical Co., Ltd.) containing Tween 80 [polyoxyethylene (20) sorbitan monooleate]. Clonidine hydrochloride (Sigma Co.) was dissolved in physiological saline solution (Otsuka Pharmaceutical Co., Ltd.). The test compound suspension and the control suspension were orally administered to separate groups of the mice (0.1 ml per 10 g of body weight). Sixty minutes after the oral administration of the test compound, clonidine hydrochloride (20 mg/kg) was intraperitoneally injected. The number of biting attacks during 30 minutes after clonidine treatment was counted. The effect of the compound was evaluated by comparing the average number of biting attacks of the test compound-administered groups with that of control groups (Statistical comparison: Student's t-test).

A further series relates to ddY-strain male mice. In words: Acute Toxicity Test (minimum lethal dose, oral). In kind it is in vivo. Particulars: seven days after administration. The protocol: Test compounds were orally administered to groups of ddY-strain male mice weighing 20±1 g, each group consisting of three mice. Seven days after the administration, minimum lethal dose (MLD) of each compound was determined by observing the mortality.

The mark [2] stands for this setting: Mus musculus, 2.5 mg/kg, read-out: Number of the Attacks of Test Compound-Treated Group/Number of the Attacks of Control Group.
Setting [3] is: Mus musculus, 10 mg/kg, read-out: Number of the Attacks of Test Compound-Treated Group/Number of the Attacks of Control Group.
Setting [4] is: Mus musculus, 0.63 mg/kg, read-out: Number of the Attacks of Test Compound-Treated Group/Number of the Attacks of Control Group.
Where [5] appears, read: Mus musculus, read-out: Number of the Attacks of Test Compound-Treated Group/Number of the Attacks of Control Group.

Like-named read-outs stand apart in the source and are kept apart here.

As to `CCCn1c(=O)c2c(nc(/C=C/c3ccc(OC)c(OC)c3)n2C)n(CCC)c1=O` [Compound 1, (E)-8-(3,4-Dimethoxystyryl)-7-methyl-1,3-dipropylxanthine], the “Number of the Biting Attacks (mean ± S.E.M.), Test Compound-Treated Group” value (“Number of the Biting Attacks” for short) in series [1] (2.5 mg/kg) was 27.5 ± 7.3. The response vs control in vivo at 2.5 mg/kg in series [1] (setting [2]) came to 480%. Besides, the “MLD (minimum lethal dose)” value in the series with ddY-strain male mice is on record as over 300 mg/kg.

For the compound `COc1cc(/C=C/c2nc3c(c(=O)n(C)c(=O)n3C)n2C)cc(OC)c1OC` [Compound 2, (E)-8-(3,4,5-trimethoxystyryl)caffeine], in series [1] (1.25 mg/kg), the “Number of the Biting Attacks” value was 29.0 ± 7.9. The response vs control in vivo at 1.25 mg/kg in series [1] (Mus musculus, 1.25 mg/kg, read-out: Number of the Attacks of Test Compound-Treated Group/Number of the Attacks of Control Group) amounted to 470%. In addition, in the series with ddY-strain male mice, the “MLD (minimum lethal dose)” value is over 300 mg/kg.

As to `CCCn1c(=O)c2c(nc(/C=C/c3ccccc3)n2C)n(CCC)c1=O` [Compound 3, (E)-7-Methyl-1,3-dipropyl-8-styrylxanthine], the “Number of the Biting Attacks” value in series [1] (10 mg/kg) is given as 26.1 ± 5.42. Also, the response vs control in vivo at 10 mg/kg in series [1] (setting [3]) turned out to be 340%. The “MLD (minimum lethal dose)” value in the series with ddY-strain male mice is over 300 mg/kg.

On to `CCn1c(=O)c2c(nc(/C=C/c3cc(OC)c(OC)c(OC)c3)n2C)n(CC)c1=O` [Compound 4, (E)-1,3-diethyl-7-methyl-8-(3,4,5-trimethoxystyryl)xanthine], for which the entries for the “Number of the Biting Attacks” value in series [1] (0.63 mg/kg), in series [1] (2.5 mg/kg) and in series [1] (10 mg/kg) were 25.3 ± 4.51, 36.9 ± 7.81 and 51.3 ± 9.37, respectively. For the same compound, the response vs control in vivo at 0.63 mg/kg in series [1] (setting [4]) was determined as 970%. In series [1] (setting [2]), the response vs control in vivo at 2.5 mg/kg was 540%. Besides, in the series on ddY-strain male mice, the “MLD (minimum lethal dose)” value is on record as over 300 mg/kg.

For the compound `CCCn1c(=O)c2c(nc(/C=C/c3cc(OC)c(OC)c(OC)c3)n2C)n(CCC)c1=O` [Compound 5, (E)-7-Methyl-1,3-dipropyl-8-(3,4,5-trimethoxystyryl)xanthine], the “Number of the Biting Attacks” value in series [1] (5 mg/kg) stood at 25.4 ± 7.71. Also, the response vs control in vivo at 5 mg/kg in series [1] (Mus musculus, 5 mg/kg, read-out: Number of the Attacks of Test Compound-Treated Group/Number of the Attacks of Control Group) worked out at 350%. The “MLD (minimum lethal dose)” value in the series on ddY-strain male mice is over 300 mg/kg.

Consider `CCCn1c(=O)c2c(nc(/C=C/c3ccc(OC)cc3)n2C)n(CCC)c1=O` [Compound 6, (E)-8-(4-Methoxystyryl)-7-methyl-1,3-dipropylxanthine], for which, in series [1] (10 mg/kg), the “Number of the Biting Attacks” value is on record as 83.7 ± 10.95. In addition, the “MLD (minimum lethal dose)” value in the series on ddY-strain male mice is reported as over 300 mg/kg.

As for `C=CCn1c(=O)c2c(nc(/C=C/c3cc(OC)c(OC)c(OC)c3)n2C)n(CC=C)c1=O` [Compound 7, (E)-1,3-Diallyl-7-methyl-8-(3,4,5-trimethoxystyryl)xanthine], in series [1] (2.5 mg/kg), the “Number of the Biting Attacks” value was determined as 40.1 ± 8.36. The response vs control in vivo at 2.5 mg/kg in series [1] (setting [2]) came out at 640%. The “MLD (minimum lethal dose)” value in the series with ddY-strain male mice is over 300 mg/kg.

For `CCCn1c(=O)c2c(nc(/C=C/c3ccc(OC)c(C)c3C)n2C)n(CCC)c1=O` [Compound 14, (E)-8-(4-Methoxy-2,3-dimethylstyryl)-7-methyl-1,3-dipropylxanthine], the “Number of the Biting Attacks” value in series [1] (2.5 mg/kg) came out at 40.7 ± 8.50. For the same compound, the response vs control in vivo at 2.5 mg/kg in series [1] (setting [2]) was found to be 730%. The “MLD (minimum lethal dose)” value in the series with ddY-strain male mice is listed as over 300 mg/kg.

`CCCn1c(=O)c2c(nc(/C=C/c3ccc4c(c3)OCCO4)n2C)n(CCC)c1=O` [Compound 18, (E)-8-[2-(1,4-Benzodioxan-6-yl)vinyl]-7-methyl-1,3-dipropylxanthine]: the “Number of the Biting Attacks” value in series [1] (2.5 mg/kg) is on record as 8.6 ± 3.74; in series [1] (10 mg/kg), 26.2 ± 7.32. In series [1] (setting [2]), the response vs control in vivo at 2.5 mg/kg was determined as 390%. For the same compound, in series [1] (setting [3]), the response vs control in vivo at 10 mg/kg is 640%. In addition, the “MLD (minimum lethal dose)” value in the series with ddY-strain male mice is listed as over 300 mg/kg.

Regarding `CCCn1c(=O)c2c(nc(/C=C/c3ccc(OC)c(OC)c3OC)n2C)n(CCC)c1=O` [Compound 22, (E)-7-Methyl-1,3-dipropyl-8-(2,3,4-trimethoxystyryl)xanthine], the “Number of the Biting Attacks” value in series [1] (10 mg/kg) was 33.1 ± 5.18. In addition, the response vs control in vivo at 10 mg/kg in series [1] (setting [3]) came out at 680%. For the same compound, the “MLD (minimum lethal dose)” value in the series with ddY-strain male mice is given as over 300 mg/kg.

With `CCCn1c(=O)c2c(nc(/C=C/c3ccc(OCC)cc3)n2C)n(CCC)c1=O` [Compound 49, (E)-8-(4-Ethoxystyryl)-7-methyl-1,3-dipropylxanthine], in series [1] (10 mg/kg), the “Number of the Biting Attacks” value is recorded as 81.5 ± 13.97. In addition, in the series with ddY-strain male mice, the “MLD (minimum lethal dose)” value is over 300 mg/kg.

For the compound `C=CCn1c(=O)c2c(nc(/C=C/c3ccc(OC)c(OC)c3)n2C)n(CC=C)c1=O` [Compound 70, (E)-1,3-Diallyl-8-(3,4-dimethoxystyryl)-7-methylxanthine], the “Number of the Biting Attacks” value in series [1] (10 mg/kg) was 60.3 ± 11.71. In series [1] (setting [3]), the response vs control in vivo at 10 mg/kg was 790%. In addition, the “MLD (minimum lethal dose)” value in the series on ddY-strain male mice is listed as over 100 mg/kg.

For the compound `CCn1c(=O)c2c(nc(/C=C/c3ccc(OC)c(OC)c3)n2C)n(CC)c1=O` [Compound 74, (E)-8-(3,4-Dimethoxystyryl)-1,3-diethyl-7-methylxanthine], the “Number of the Biting Attacks” value in series [1] (0.63 mg/kg) is 23.2 ± 5.19; in series [1] (2.5 mg/kg), 51.3 ± 8.70; in series [1] (10 mg/kg), 73.3 ± 8.75. Further, the response vs control in vivo at 0.63 mg/kg in series [1] (setting [4]) was 380%. The response vs control in vivo at 2.5 mg/kg in series [1] (setting [2]) came out at 840%. In addition, in the series with ddY-strain male mice, the “MLD (minimum lethal dose)” value was over 300 mg/kg.

As for `CCn1c(=O)c2c(nc(/C=C/c3ccc(OC)cc3OC)n2C)n(CC)c1=O` [Compound 78, (E)-8-(2,4-Dimethoxystyryl)-1,3-diethyl-7-methylxanthine], in series [1] (10 mg/kg), the “Number of the Biting Attacks” value was 32.1 ± 7.31. The response vs control in vivo at 10 mg/kg in series [1] (setting [3]) was 610%. Also, the “MLD (minimum lethal dose)” value in the series with ddY-strain male mice was over 300 mg/kg.

With `CCn1c(=O)c2c(nc(/C=C/c3ccc(OC)c(OC)c3OC)n2C)n(CC)c1=O` [Compound 80, (E)-1,3-Diethyl-7-methyl-8-(2,3,4-trimethoxystyryl)xanthine], the entries for the “Number of the Biting Attacks” value in series [1] (0.63 mg/kg), in series [1] (2.5 mg/kg) and in series [1] (10 mg/kg) were 30.3 ± 7.00, 59.3 ± 12.37 and 67.5 ± 9.35, respectively. Besides, the response vs control in vivo at 0.63 mg/kg in series [1] (setting [4]) came to 470%. Further, the “MLD (minimum lethal dose)” value with ddY-strain male mice is recorded as over 300 mg/kg.

With `CCn1c(=O)c2c(nc(/C=C/c3ccc(OC)c(C)c3C)n2C)n(CC)c1=O` [Compound 82, (E)-1,3-Diethyl-8-(4-methoxy-2,3-dimethylstyryl)-7-methylxanthine], the “Number of the Biting Attacks” value in series [1] (2.5 mg/kg) turned out to be 59.0 ± 13.31; in series [1] (10 mg/kg), 61.8 ± 11.89. Besides, the response vs control in vivo at 2.5 mg/kg in series [1] (setting [5]) is 910%. In addition, the response vs control in vivo at 10 mg/kg in series [1] (setting [3]) was determined as 800%. Further, the “MLD (minimum lethal dose)” value with ddY-strain male mice was over 300 mg/kg.

As to `CCn1c(=O)c2c(nc(/C=C/c3ccc(OC)c(Br)c3)n2C)n(CC)c1=O` [Compound 114, (E)-8-(3-Bromo-4-methoxystyryl)-1,3-diethyl-7-methylxanthine], in series [1] (10 mg/kg), the “Number of the Biting Attacks” value was determined as 37.8 ± 8.66. Besides, the “MLD (minimum lethal dose)” value with ddY-strain male mice was over 100 mg/kg.

`CCOc1ccc(/C=C/c2nc3c(c(=O)n(CC)c(=O)n3CC)n2C)cc1` [Compound 124, (E)-8-(4-Ethoxystyryl)-1,3-diethyl-7-methylxanthine]: the “Number of the Biting Attacks” value in series [1] (2.5 mg/kg) was 85.8 ± 12.41; in series [1] (10 mg/kg), 50.5 ± 17.7. Also, in the series with ddY-strain male mice, the “MLD (minimum lethal dose)” value is reported as over 300 mg/kg.

With `CCCOc1ccc(/C=C/c2nc3c(c(=O)n(CC)c(=O)n3CC)n2C)cc1` [Compound 126, (E)-1,3-Diethyl-7-methyl-8-(4-propoxystyryl)xanthine], in series [1] (10 mg/kg), the “Number of the Biting Attacks” value is given as 80.0 ± 13.93. In addition, the “MLD (minimum lethal dose)” value with ddY-strain male mice was over 300 mg/kg.

`CCn1c(=O)c2c(nc(/C=C/c3cc(OC)cc(OC)c3)n2C)n(CC)c1=O` [Compound 130, (E)-8-(3,5-Dimethoxystyryl)-1,3-diethyl-7-methyl-xanthine]: the “Number of the Biting Attacks” value in series [1] (10 mg/kg) was 52.2 ± 11.79. Besides, the response vs control in vivo at 10 mg/kg in series [1] (setting [3]) came out at 480%. Besides, the “MLD (minimum lethal dose)” value with ddY-strain male mice is reported as over 300 mg/kg.

Take `CCCCOc1ccc(/C=C/c2nc3c(c(=O)n(CC)c(=O)n3CC)n2C)cc1` [Compound 148, (E)-8-(4-Butoxystyryl)-1,3-diethyl-7-methylxanthine]: the “Number of the Biting Attacks” value in series [1] (10 mg/kg) came out at 46.3 ± 9.40. Further, the “MLD (minimum lethal dose)” value in the series with ddY-strain male mice was over 100 mg/kg.

For `Cn1c(=O)c2[nH]cnc2n(C)c1=O` [theophylline, reference compound], the “Number of the Biting Attacks” value in series [1] (10 mg/kg) is 18.6 ± 3.58. The response vs control in vivo at 10 mg/kg in series [1] (setting [5]) is 520%.
